Experimental findings from ChEMBL document CHEMBL1131383, “Syntheses and biological evaluation of indolocarbazoles, analogues of rebeccamycin, modified at the imide heterocycle” (J Med Chem, 1998) are described below.

pIC50: −log10 of the molar value. Converted amounts (≈) assume the structure as drawn. Bounds are passed on as bounds.

One experiment concerns the target Protein kinase C (PKC). Briefly: Inhibition of Protein kinase C. The class given is protein assay.
Experiment [1] deals with Bacillus cereus. Briefly: Antimicrobial activity is tested against Bacillus cereus. The format is functional.
The test system of another experiment is P388. Briefly: Antiproliferative activity measured against P388 Leukemia cells. The class given is functional, cell-based, Mus musculus.
The subject of experiment [2] is CEM-SS. Briefly: Cytotoxic concentration is tested against CEM-SS cells. The class given is functional. The note with it: Homo sapiens.
Experiment [3] can be described thus: Selectivity was measured [Selectivity = (CC50/IC50) against HIV-1 infected CEM-SS cells]. The class given is functional.
Experiment [4] addresses T1, DNA topoisomerase 1 (Homo sapiens) (UniProt P11387).
T1 sequence (whole entry): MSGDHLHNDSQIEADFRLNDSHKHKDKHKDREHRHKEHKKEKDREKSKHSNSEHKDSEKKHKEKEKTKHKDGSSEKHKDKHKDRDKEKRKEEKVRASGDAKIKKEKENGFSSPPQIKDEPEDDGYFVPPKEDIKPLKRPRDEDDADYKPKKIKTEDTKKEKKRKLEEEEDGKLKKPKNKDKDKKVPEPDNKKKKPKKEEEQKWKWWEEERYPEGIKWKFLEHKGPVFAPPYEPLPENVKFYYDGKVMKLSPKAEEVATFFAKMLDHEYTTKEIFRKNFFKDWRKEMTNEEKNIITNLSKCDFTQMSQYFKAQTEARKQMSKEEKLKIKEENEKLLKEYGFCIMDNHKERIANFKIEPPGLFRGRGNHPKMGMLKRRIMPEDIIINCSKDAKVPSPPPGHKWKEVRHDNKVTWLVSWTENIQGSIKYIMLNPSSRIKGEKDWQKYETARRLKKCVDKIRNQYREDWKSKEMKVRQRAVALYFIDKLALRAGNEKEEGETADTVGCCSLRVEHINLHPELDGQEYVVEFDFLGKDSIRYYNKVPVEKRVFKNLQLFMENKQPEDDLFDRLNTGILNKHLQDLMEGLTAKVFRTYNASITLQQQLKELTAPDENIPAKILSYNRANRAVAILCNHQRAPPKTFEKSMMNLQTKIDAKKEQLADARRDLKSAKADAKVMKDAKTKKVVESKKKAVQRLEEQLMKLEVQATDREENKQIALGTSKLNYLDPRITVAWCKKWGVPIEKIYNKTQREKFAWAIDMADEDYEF
Briefly: Inhibition of human Topoisomerase I.

The test system of experiment [5] is CEM-SS. Briefly: Inhibitory concentration is tested in HIV-1 Lai-infected CEM-SS cells. The format is functional, cell-based. The note with it: Homo sapiens.
Another experiment deals with P388CPT5. Briefly: Antiproliferative activity measured against P388CPT5 cells resistant to Topoisomerase I inhibitor Camptothecin. The format is functional, cell-based. The conditions noted are these: Mus musculus.
Another experiment has as its system B16. Briefly: Antiproliferative activity measured against murine B16 melanoma cells. The format is functional, cell-based. The conditions noted are these: Mus musculus.
A further experiment deals with Streptomyces chartreusis. Briefly: In Vitro growth inhibitory effect of compounds against Gram-Positive Bacteria Streptomyces chartreusis NRRL11407. The class given is functional.
Experiment [6] has as its system Bacillus cereus. Briefly: In Vitro growth inhibitory effect of compounds against Gram-Positive Bacteria Bacillus cereus ATCC 14579. The format is functional.

For the molecule `CO[C@H]1[C@H](O)[C@@H](O)[C@H](n2c3c(Cl)cccc3c3c4c(c5c6cccc(Cl)c6[nH]c5c32)C(=O)NC4)O[C@@H]1CO.CO[C@H]1[C@H](O)[C@@H](O)[C@H](n2c3c(Cl)cccc3c3c4c(c5c6cccc(Cl)c6[nH]c5c32)CNC4=O)O[C@@H]1CO`, on Protein kinase C (PKC), the IC50 worked out at 28.8 µM. Also, the MIC turned out to be 5.6 µM with Bacillus cereus [1] and 1.8 µM in experiment [4]. The pIC50 in the experiment with P388 (Mus musculus, P388) was under 3.90; in the experiment with CEM-SS [5], 6.44; in the experiment on P388CPT5 it was 5.52. In addition, half-maximal cytotoxicity in the experiment with CEM-SS [2] (CC50) was put at 1.15 µM. Also, in [3], the Selectivity index was found to be 3.2.

`CO[C@H]1[C@H](O)[C@@H](O)[C@H](n2c3ccccc3c3c4c(c5c6ccccc6[nH]c5c32)C(=O)OC4=O)O[C@@H]1CO`: the pIC50 in the experiment with B16 is 4.76; in the experiment on P388 (Mus musculus, P388) it was 5.20; in the experiment on CEM-SS [5], under 5.70; in the experiment on P388CPT5, under 4.70. For the same molecule, the MIC against Bacillus cereus [1] was over 99 µM; in experiment [4] it was 1.99 µM (≈ 1 µg/mL). This molecule also yielded a CC50 in the experiment with CEM-SS [2] of over 1.98 µM. The molecule further came in with an Inhibition zone in the experiment on Streptomyces chartreusis of 7 mm.

In turn, `CO[C@H]1[C@H](O)[C@@H](O)[C@H](n2c3ccccc3c3c4c(c5c6ccccc6[nH]c5c32)C(=O)NC4)O[C@@H]1CO.CO[C@H]1[C@H](O)[C@@H](O)[C@H](n2c3ccccc3c3c4c(c5c6ccccc6[nH]c5c32)CNC4=O)O[C@@H]1CO` registered an IC50 against Protein kinase C (PKC) of 3.7 µM. Further, the MIC in the experiment with Bacillus cereus [1] is 25 µM; in experiment [4] it was 0.02 µM. For the same molecule, in the experiment on CEM-SS [2], the CC50 came out at 14.3 µM. For the same molecule, the Selectivity index in experiment [3] stood at 3.5. Besides, the pIC50 with CEM-SS [5] was 5.39; in the experiment with P388CPT5, 5.52.

For `CO[C@H]1[C@H](OC=O)[C@@H](O)[C@H](n2c3ccccc3c3c4c(c5c6ccccc6[nH]c5c32)C(=O)OC4=O)O[C@@H]1CO`, the MIC against Bacillus cereus [1] is over 94 µM; in experiment [4] it was 5.7 µM (≈ 3.02 µg/mL). The pIC50 is under 4.72 with P388 (Mus musculus, P388) and under 5.03 with CEM-SS [5]. This molecule also yielded a CC50 with CEM-SS [2] of over 9.4 µM. The Inhibition zone in the experiment with Bacillus cereus [6] was determined as 8 mm; in the experiment with Streptomyces chartreusis, 12 mm.

As for `CO[C@H]1[C@H](O)[C@@H](O)[C@H](n2c3ccccc3c3c4c(c5c6ccccc6n(C)c5c32)C(=O)OC4=O)O[C@@H]1CO`, the pIC50 with B16 is 4.51; in the experiment on P388 (Mus musculus, P388), under 4.72; in the experiment with CEM-SS [5] it was under 5.01. For the same molecule, the MIC against Bacillus cereus [1] is over 97 µM; in experiment [4] it was over 19 µM. This molecule registered a cytotoxic concentration (CC50) in the experiment on CEM-SS [2] of over 9.7 µM. Also, the Inhibition zone in the experiment on Streptomyces chartreusis amounted to 7 mm.

Take `CO[C@H]1[C@H](O)[C@@H](O)[C@H](n2c3ccccc3c3c4c(c5c6ccccc6[nH]c5c32)C(=O)N(C)C4)O[C@@H]1CO.CO[C@H]1[C@H](O)[C@@H](O)[C@H](n2c3ccccc3c3c4c(c5c6ccccc6[nH]c5c32)CN(C)C4=O)O[C@@H]1CO`: the pIC50 was 5.30 with B16; 5.47 in the experiment with P388 (Mus musculus, P388); 6.22 with CEM-SS [5]; under 4.70 with P388CPT5. The values for the MIC (with Bacillus cereus [1]; in experiment [4]) were 24 µM and 19.9 µM, respectively. The same molecule returned a CC50 in the experiment on CEM-SS [2] of 8.38 µM. Besides, the Selectivity index in experiment [3] was 14. Also, the Inhibition zone in the experiment on Bacillus cereus [6] and in the experiment on Streptomyces chartreusis was 9 mm in each case.

As for `CO[C@H]1[C@H](O)[C@@H](O)[C@H](n2c3ccc(Br)cc3c3c4c(c5c6cc(Br)ccc6[nH]c5c32)C(=O)OC4=O)O[C@@H]1CO`, the pIC50 in the experiment with B16 is 4.89; with P388 (Mus musculus, P388), 6.04; in the experiment with CEM-SS [5], 5.31; in the experiment on P388CPT5, 5.12. The MIC with Bacillus cereus [1] is over 75 µM; in experiment [4], 1.52 µM (≈ 1 µg/mL). For the same molecule, the CC50 in the experiment on CEM-SS [2] amounted to 9.39 µM. For the same molecule, in experiment [3], the Selectivity index is 1.9.

`CO[C@H]1[C@H](O)[C@@H](O)[C@H](n2c3c(Cl)cccc3c3c4c(c5c6cccc(Cl)c6[nH]c5c32)C(=O)NC4=O)O[C@@H]1CO` [REBECCAMYCIN] returned an MIC in the experiment with Bacillus cereus [1] of 10.9 µM (≈ 6.22 µg/mL). Besides, the pIC50 with P388 (Mus musculus, P388) was 5.91; in the experiment on CEM-SS [5] it was 6.28; with P388CPT5 it was 4.98. In the experiment with CEM-SS [2], this molecule came in with a CC50 of 1.05 µM. Besides, the Selectivity index in experiment [3] is on record as 2. The Inhibition zone in the experiment on Bacillus cereus [6] and in the experiment with Streptomyces chartreusis was 9 mm in each case.

`CO[C@H]1[C@H](O)[C@@H](O)[C@H](n2c3ccccc3c3c4c(c5c6ccccc6[nH]c5c32)C(=O)N(C)C4=O)O[C@@H]1CO` had an IC50 against Protein kinase C (PKC) of over 100 µM. In the experiment on Bacillus cereus [1], this molecule yielded an MIC of 1.55 µM (≈ 0.799 µg/mL). The pIC50 with P388 (Mus musculus, P388) was 5.97; in the experiment on CEM-SS [5], 5.38; with P388CPT5, 6.15. Further, the cytotoxic concentration (CC50) with CEM-SS [2] came out at 7.96 µM. Further, the Selectivity index in experiment [3] amounted to 1.9.

For `CO[C@H]1[C@H](O)[C@@H](O)[C@H](n2c3c(Cl)cccc3c3c4c(c5c6cccc(Cl)c6[nH]c5c32)C(=O)N(C)C4=O)O[C@@H]1CO` (stereo in doubt; A), the IC50 at Protein kinase C (PKC) was over 100 µM. The MIC with Bacillus cereus [1] was over 85 µM. Moreover, the values for the pIC50 in the experiment with P388 (p388), in the experiment with CEM-SS [5] and in the experiment on P388CPT5 were 6.21, 5.30 and 6.22, respectively. This molecule also displayed a CC50 in the experiment on CEM-SS [2] of 8.06 µM. Besides, in experiment [3], the Selectivity index came to 1.6.

Turning to `CO[C@H]1[C@H](O)[C@@H](O)[C@H](n2c3ccccc3c3c4c(c5c6ccccc6[nH]c5c32)C(=O)NC4=O)O[C@@H]1CO`, the pIC50 with B16 is 6.05; in the experiment on P388 (Mus musculus, P388), 6.16; in the experiment with CEM-SS [5], 6.80; in the experiment on P388CPT5 it was under 4.70. Also, the MIC was over 100 µM in the experiment on Bacillus cereus [1] and 0.59 µM (≈ 0.296 µg/mL) in experiment [4]. The molecule also displayed a CC50 in the experiment on CEM-SS [2] of 0.9 µM. The same molecule came in with a Selectivity index in experiment [3] of 5.6. In addition, the Inhibition zone in the experiment on Bacillus cereus [6] was 7 mm.

On to `CO[C@H]1[C@H](O)[C@@H](O)[C@H](n2c3ccccc3c3c4c(c5c6ccccc6n(C)c5c32)C(=O)N(C)C4=O)O[C@@H]1CO`, for which the pIC50 in the experiment with B16 was 5.10; with P388 (Mus musculus, P388) it was under 4.72; in the experiment on CEM-SS [5] it was under 4.72. The MIC against Bacillus cereus [1] is 94 µM (≈ 49.8 µg/mL); in experiment [4] it was over 19 µM. Besides, in the experiment with CEM-SS [2], the CC50 is over 19 µM. Further, the Inhibition zone in the experiment on Bacillus cereus [6] turned out to be 8 mm; in the experiment with Streptomyces chartreusis, 12 mm.

In the case of `CO[C@H]1[C@H](O)[C@@H](O)[C@H](n2c3c(Cl)cccc3c3c4c(c5c6cccc(Cl)c6[nH]c5c32)C(=O)N(C)C4)O[C@@H]1CO.CO[C@H]1[C@H](O)[C@@H](O)[C@H](n2c3c(Cl)cccc3c3c4c(c5c6cccc(Cl)c6[nH]c5c32)CN(C)C4=O)O[C@@H]1CO`, the pIC50 in the experiment with B16 was 6.32; with P388 (Mus musculus, P388), 6.28; with CEM-SS [5], 6.51; with P388CPT5 it was 5.39. Besides, the figures for the MIC (with Bacillus cereus [1]; in [4]) were over 88 µM and 17.6 µM, respectively. Further, in the experiment with CEM-SS [2], the CC50 was 1.72 µM. Moreover, in experiment [3], the Selectivity index is reported as 5.5. The molecule also returned an Inhibition zone in the experiment on Streptomyces chartreusis of 9 mm.

As a reminder, the IC50 is the concentration needed to halve the response being measured. Lower therefore signals greater potency in that assay. The term pIC50 denotes the negative decadic logarithm of the IC50, by convention in mol/L. The low end stands for a large IC50, the high end for a small IC50. For orientation: CC50 means the concentration that lowers cell viability or growth by half.
